Results: ChEMBL document CHEMBL5647688, “Mitogen-activated protein kinase (MEK/ERK) inhibition sensitizes cancer cells to centromere-associated protein E inhibition” (Int J Cancer, 2013)

Key:
Type in all cases: functional
RKO = experiment: Synergistic cytotoxicity against human RKO cells expressing BRAF mutant assessed as combination index at ED 50 measured after 72 hrs in presence of MEK inhibitor GSK1120212 by Cell-titer Glo reagent assay
A549 = experiment: Synergistic cytotoxicity against human A549 cells expressing KRAS mutant assessed as combination index at ED75 measured after 72 hrs in presence of MEK inhibitor GSK1120212 by Cell-titer Glo reagent assay
ASPC1 = experiment: Synergistic cytotoxicity against human ASPC1 cells assessed as combination index at ED 50 measured after 72 hrs in presence of MEK inhibitor GSK1120212 by Cell-titer Glo reagent assay
NB-1691 [1] = experiment: Synergistic cytotoxicity against human NB-1691 cells assessed as combination index at ED 50 measured after 72 hrs in presence of temozolomide by Cell-titer Glo reagent assay
NCI-H460 [2] = experiment: Synergistic cytotoxicity against human NCI-H460 cells expressing KRAS mutant assessed as combination index at ED 50 measured after 72 hrs in presence of MEK inhibitor GSK1120212 by Cell-titer Glo reagent assay
NCI-H520 [3] = experiment: Synergistic cytotoxicity against human NCI-H520 cells assessed as combination index at ED 50 measured after 72 hrs in presence of MEK inhibitor GSK1120212 by Cell-titer Glo reagent assay
SW48 [4] = experiment: Synergistic cytotoxicity against human SW48 cells assessed as combination index at ED 50 measured after 72 hrs in presence of MEK inhibitor GSK1120212 by Cell-titer Glo reagent assay
[5] = Synergistic cytotoxicity against human NB-1771 cells assessed as combination index at ED 75 measured after 72 hrs in presence of concurrent treatment of […] inhibitor CI-1040 by Cell-titer Glo reagent assay
NB-1691 [6] = experiment: Synergistic cytotoxicity against human NB-1691 cells assessed as combination index at ED 50 measured after 72 hrs in presence of SN-38 by Cell-titer Glo reagent assay
NCI-H2228 = experiment: Synergistic cytotoxicity against human NCI-H2228 cells assessed as combination index at ED75 measured after 72 hrs in presence of MEK inhibitor GSK1120212 by Cell-titer Glo reagent assay
SK-N-FI [7] = experiment: Synergistic cytotoxicity against human SK-N-FI cells assessed as combination index at ED 50 measured after 72 hrs in presence of SN-38 by Cell-titer Glo reagent assay
SK-N-FI [8] = experiment: Synergistic cytotoxicity against human SK-N-FI cells assessed as combination index at ED 75 measured after 72 hrs in presence of SN-38 and temozolomide by Cell-titer Glo reagent assay
NCI-H460 [9] = experiment: Synergistic cytotoxicity against human NCI-H460 cells expressing KRAS mutant assessed as combination index at ED75 measured after 72 hrs in presence of MEK inhibitor GSK1120212 by Cell-titer Glo reagent assay
NCI-H1792 = experiment: Synergistic cytotoxicity against human NCI-H1792 cells expressing KRAS mutant assessed as combination index at ED75 measured after 72 hrs in presence of MEK inhibitor GSK1120212 by Cell-titer Glo reagent assay
SW900 [10] = experiment: Synergistic cytotoxicity against human SW900 cells expressing KRAS mutant assessed as combination index at ED75 measured after 72 hrs in presence of MEK inhibitor GSK1120212 by Cell-titer Glo reagent assay
SW900 [11] = experiment: Synergistic cytotoxicity against human SW900 cells expressing KRAS mutant assessed as combination index at ED 50 measured after 72 hrs in presence of MEK inhibitor GSK1120212 by Cell-titer Glo reagent assay
HuP-T4 [12] = experiment: Synergistic cytotoxicity against human HuP-T4 cells expressing KRAS mutant assessed as combination index at ED 50 measured after 72 hrs in presence of MEK inhibitor GSK1120212 by Cell-titer Glo reagent assay
SW48 [13] = experiment: Synergistic cytotoxicity against human SW48 cells assessed as combination index at ED75 measured after 72 hrs in presence of MEK inhibitor GSK1120212 by Cell-titer Glo reagent assay
SK-N-FI [14] = experiment: Synergistic cytotoxicity against human SK-N-FI cells assessed as combination index at ED 50 measured after 72 hrs in presence of sequential treatment of […] inhibitor CI-1040 by Cell-titer Glo reagent assay
NCI-H23 = experiment: Synergistic cytotoxicity against human NCI-H23 cells assessed as combination index at ED 50 measured after 72 hrs in presence of MEK inhibitor GSK1120212 by Cell-titer Glo reagent assay
NCI-H2122 = experiment: Synergistic cytotoxicity against human NCI-H2122 cells expressing KRAS mutant assessed as combination index at ED 50 measured after 72 hrs in presence of MEK inhibitor GSK1120212 by Cell-titer Glo reagent assay
NCI-H358 = experiment: Synergistic cytotoxicity against human NCI-H358 cells expressing KRAS mutant assessed as combination index at ED75 measured after 72 hrs in presence of MEK inhibitor GSK1120212 by Cell-titer Glo reagent assay
NCI-H1563 = experiment: Synergistic cytotoxicity against human NCI-H1563 cells assessed as combination index at ED75 measured after 72 hrs in presence of MEK inhibitor GSK1120212 by Cell-titer Glo reagent assay
SK-N-FI [15] = experiment: Synergistic cytotoxicity against human SK-N-FI cells assessed as combination index at ED 75 measured after 72 hrs in presence of concurrent treatment of […] inhibitor CI-1040 by Cell-titer Glo reagent assay
NCI-H520 [16] = experiment: Synergistic cytotoxicity against human NCI-H520 cells assessed as combination index at ED75 measured after 72 hrs in presence of MEK inhibitor GSK1120212 by Cell-titer Glo reagent assay
SK-N-FI [17] = experiment: Synergistic cytotoxicity against human SK-N-FI cells assessed as combination index at ED 50 measured after 72 hrs in presence of temozolomide by Cell-titer Glo reagent assay
SK-N-FI [18] = experiment: Synergistic cytotoxicity against human SK-N-FI cells assessed as combination index at ED 50 measured after 72 hrs in presence of SN-38 and temozolomide by Cell-titer Glo reagent assay
YAPC = experiment: Synergistic cytotoxicity against human […] cells expressing KRAS mutant assessed as combination index at ED75 measured after 72 hrs in presence of MEK inhibitor GSK1120212 by Cell-titer Glo reagent assay
HuP-T4 [19] = experiment: Synergistic cytotoxicity against human HuP-T4 cells expressing KRAS mutant assessed as combination index at ED75 measured after 72 hrs in presence of MEK inhibitor GSK1120212 by Cell-titer Glo reagent assay
Calu-6 = experiment: Synergistic cytotoxicity against human Calu-6 cells expressing KRAS mutant assessed as combination index at ED75 measured after 72 hrs in presence of MEK inhibitor GSK1120212 by Cell-titer Glo reagent assay
NB-1691 [20] = experiment: Synergistic cytotoxicity against human NB-1691 cells assessed as combination index at ED 75 measured after 72 hrs in presence of concurrent treatment of […] inhibitor CI-1040 by Cell-titer Glo reagent assay

CC(C)Oc1ccc(C(=O)N[C@H](CNC(=O)CN(C)C)Cc2ccc(-c3cn4cccc([C@H](C)O)c4n3)cc2)cc1Cl [GSK-923295A]
CI (RKO): 0.373
CI (A549): 0.402
CI (ASPC1): 0.566
CI (NB-1691 [1]): 0.405
CI (NCI-H460 [2]): 0.25
CI (NCI-H520 [3]): 0.842
CI (SW48 [4]): 0.36
CI [5]: 0.118
CI (NB-1691 [6]): 0.394
CI (NCI-H2228): 0.404
CI (SK-N-FI [7]): 1.845
CI (SK-N-FI [8]): 1.058
CI (NCI-H460 [9]): 0.294
CI (NCI-H1792): 0.482
CI (SW900 [10]): 0.653
CI (SW900 [11]): 0.705
CI (HuP-T4 [12]): 0.452
CI (SW48 [13]): 0.091
CI (SK-N-FI [14]): 0.834
CI (NCI-H23): 0.259
CI (NCI-H2122): 0.85
CI (NCI-H358): 0.467
CI (NCI-H1563): 0.243
CI (SK-N-FI [15]): 0.379
CI (NCI-H520 [16]): 0.715
CI (SK-N-FI [17]): 0.837
CI (SK-N-FI [18]): 0.67
CI (YAPC): 1.31
CI (HuP-T4 [19]): 0.892
CI (Calu-6): 0.533
CI (NB-1691 [20]): 0.308
